Data from article PMC12040169 (PLOS Biology, 2025).
≈ marks a conversion by molar mass, not a printed value.

Columns and labels:
[1] = in vitro; design: Viability of infected HeLa host cells, resazurin conversion, bulk resorufin fluorescence relative to DMSO; conditions: human, hela cells; bulk resorufin, mean of 3
[2] = system: T1, CTL2-GFP (C. trachomatis L2/434/Bu, GFP-expressing); experiment: microbe, parasite or virus in culture; design: C. trachomatis growth in HeLa, dose-response, mean of bulk GFP fluorescence and imaged total inclusion area; conditions: Chlamydia trachomatis, HeLa, 28.5 h; mean of GFP and inclusion area
T1 construct: L2/434/Bu, GFP-expressing
Text: (§1) We screened a library of 36,785 small molecules displaying drug-like properties and covering a wide chemical space (Fig 1A and S2A Data). In this process, we also complemented the assay described above with an imaging-based readout (Fig 1B). After measurements of bulk GFP and resorufin fluorescence, cells were fixed, stained with the DNA dye Hoechst, and imaged at a high-content imaging platform to detect chlamydial inclusions (GFP) and host cell nuclei (Hoechst). The total area and number of inclusions in individual wells and the number of nuclei then served as additional proxies for chlamydial growth and host cell viability. […] MICs were calculated as described above.

[3] = system: T1, CTL2-GFP (C. trachomatis L2/434/Bu, GFP-expressing); experiment: microbe, parasite or virus in culture; design: species or system HeLa; C. trachomatis growth in HeLa, dose-response, mean of bulk GFP fluorescence and imaged total inclusion area; conditions: Chlamydia trachomatis, 28.5 h; mean of GFP and inclusion area
Text: as §1

[4] = system: HeLa; conditions: bulk resorufin, single well, 28.5 h, 10 µM, Bulk resorufin fluorescence
[5] = in vitro; conditions: human, hela cells, % viability

CN(C)c1ccc(Nc2nc(NCCO)c3ccccc3n2)cc1 [c27e]
viability at 28.5 h, 0.000416667 µM [1]: 93.3% | viability at 28.5 h, 0.00125 µM [1]: 89.2% | viability at 28.5 h, 0.00375 µM [1]: 89.8% | viability at 28.5 h, 0.0123333 µM [1]: 89.3% | viability at 28.5 h, 0.037 µM [1]: 93.2% | viability at 28.5 h, 0.111 µM [1]: 89.1% | viability at 28.5 h, 0.333 µM [1]: 95.3% | viability at 28.5 h, 1 µM [1]: 89.9% | viability at 28.5 h, 3 µM [1]: 103% | viability at 28.5 h, 10 µM [1]: 99.4% | viability at 28.5 h, 30 µM [1]: 110% | IC50 [2]: 2.54 µM | MIC [3]: 5.04 µM (≈ 1.63 µg/mL)

COCC(=O)N[C@H]1C[C@H]2C(=O)Nc3ccc(/C=C/c4ccccc4)cc3C(=O)N2C1 [c25e]
viability at 28.5 h, 0.000416667 µM [1]: 97.4% | viability at 28.5 h, 0.00125 µM [1]: 103% | viability at 28.5 h, 0.00375 µM [1]: 99.5% | viability at 28.5 h, 0.0123333 µM [1]: 105% | viability at 28.5 h, 0.037 µM [1]: 100% | viability at 28.5 h, 0.111 µM [1]: 98.6% | viability at 28.5 h, 0.333 µM [1]: 102% | viability at 28.5 h, 1 µM [1]: 106% | viability at 28.5 h, 3 µM [1]: 110% | viability at 28.5 h, 10 µM [1]: 113% | viability at 28.5 h, 30 µM [1]: 113% | IC50 [2]: 2.47 µM | MIC [3]: 9.14 µM (≈ 3.71 µg/mL)

Cc1cccc(OCC(C)NC(=O)NCCc2cnn(C)c2)c1 (stereo not shown) [c47e]
viability at 28.5 h, 0.000416667 µM [1]: 97.2% | viability at 28.5 h, 0.00125 µM [1]: 99.7% | viability at 28.5 h, 0.00375 µM [1]: 102% | viability at 28.5 h, 0.0123333 µM [1]: 104% | viability at 28.5 h, 0.037 µM [1]: 105% | viability at 28.5 h, 0.111 µM [1]: 100% | viability at 28.5 h, 0.333 µM [1]: 112% | viability at 28.5 h, 1 µM [1]: 106% | viability at 28.5 h, 3 µM [1]: 109% | viability at 28.5 h, 10 µM [1]: 113% | viability at 28.5 h, 30 µM [1]: 118% | IC50 [2]: 6.59 µM | MIC [3]: 12.1 µM (≈ 3.83 µg/mL)

CCOc1ccc2nc(NC(=N)N)nc(C)c2c1 [c37e]
viability at 28.5 h, 0.000416667 µM [1]: 85.5% | viability at 28.5 h, 0.00125 µM [1]: 89.1% | viability at 28.5 h, 0.00375 µM [1]: 85.5% | viability at 28.5 h, 0.0123333 µM [1]: 89% | viability at 28.5 h, 0.037 µM [1]: 86.7% | viability at 28.5 h, 0.111 µM [1]: 91.1% | viability at 28.5 h, 0.333 µM [1]: 88.4% | viability at 28.5 h, 1 µM [1]: 87.7% | viability at 28.5 h, 3 µM [1]: 84.7% | viability at 28.5 h, 10 µM [1]: 79% | viability at 28.5 h, 30 µM [1]: 55.2% | IC50 [2]: 4.22 µM | MIC [3]: 11.4 µM (≈ 2.8 µg/mL)

Fc1cc(Br)c(CNCc2ncc[nH]2)c(N2CCCCC2)c1F [c31e]
viability at 28.5 h, 0.000416667 µM [1]: 101% | viability at 28.5 h, 0.00125 µM [1]: 103% | viability at 28.5 h, 0.00375 µM [1]: 98.4% | viability at 28.5 h, 0.0123333 µM [1]: 96.4% | viability at 28.5 h, 0.037 µM [1]: 92% | viability at 28.5 h, 0.111 µM [1]: 100% | viability at 28.5 h, 0.333 µM [1]: 93.6% | viability at 28.5 h, 1 µM [1]: 97.6% | viability at 28.5 h, 3 µM [1]: 101% | viability at 28.5 h, 10 µM [1]: 97.6% | viability at 28.5 h, 30 µM [1]: 102% | IC50 [2]: 3.12 µM | MIC [3]: 5.18 µM (≈ 1.99 µg/mL)

COc1ccc(C(=O)Nc2nnc(CC(=O)N/N=C/c3ccccc3OC)s2)cc1 [CBK072076]
% viability [4]: 101% | viability at 28.5 h, 10 µM [5]: 91.8%

CCn1ncc(CN2C[C@@H]3CCCN3C[C@@H]2CCSC)c1C [CBK285446]
% viability [4]: 110% | viability at 28.5 h, 10 µM [5]: 109%

COc1ccc(-n2ccc(=O)c(Cc3c(Cl)cccc3Cl)c2C)cc1 [CBK019186]
% viability [4]: 106% | viability at 28.5 h, 10 µM [5]: 89.2%

O=C1[C@@H]2CCCN2C(=O)c2ccccc2N1Cc1ccc(F)cc1 [CBK282856]
% viability [4]: 99.5% | viability at 28.5 h, 10 µM [5]: 117%

Cc1csc(NC(=O)c2ccc(S(=O)(=O)N3CCCCC3)cc2)n1 [CBK069735]
% viability [4]: 103% | viability at 28.5 h, 10 µM [5]: 102%

O=C(Nc1ccccc1OC1CCNCC1)C1CCC1 [CBK045901T]
% viability [4]: 97.8% | viability at 28.5 h, 10 µM [5]: 109%

Cc1cc(CNC(=S)NC2CCCCC2)nn1C [CBK288519]
% viability [4]: 94% | viability at 28.5 h, 10 µM [5]: 82.5%

O=C(NC1CCCCC1)[C@H]1C=CCN1C(=O)c1ccc(F)cc1F [CBK282311]
% viability [4]: 97.2% | viability at 28.5 h, 10 µM [5]: 95%

CCC(C)NC(=O)Cn1c([C@H]2CCCO2)cc2cccnc21 (stereo partly shown) [CBK282874]
% viability [4]: 100% | viability at 28.5 h, 10 µM [5]: 88.1%

C[C@@H](Cn1c(=O)oc2ccccc21)NC(=O)Cc1cccs1 [CBK284533]
% viability [4]: 79.8% | viability at 28.5 h, 10 µM [5]: 92.9%

CC(=O)Nc1ccc(S(=O)(=O)Nc2c(C(=O)N3CCN(C)CC3)[nH]c3ccccc23)cc1 [CBK050044]
% viability [4]: 93.9% | viability at 28.5 h, 10 µM [5]: 94.9%

O=C(O)c1c(NS(=O)(=O)c2ccc(Oc3ccccc3)cc2)sc2c1CCCC2 [CBK024820]
% viability [4]: 106% | viability at 28.5 h, 10 µM [5]: 101%

Cc1ccc(C(=O)NCC(=O)NCC(=O)O)cc1 [CBK262170]
% viability [4]: 91.7% | viability at 28.5 h, 10 µM [5]: 103%

CCCNC(=O)[C@@H]1Cc2c([nH]c3ccccc23)[C@]2(CCN(CCOc3ccccc3)C2)N1 [CBK063172T]
% viability [4]: 86% | viability at 28.5 h, 10 µM [5]: 101%

O=C(CN1C(=O)[C@@H]2CCCN2c2ncccc21)NCc1ccccc1 [CBK286203]
% viability [4]: 117% | viability at 28.5 h, 10 µM [5]: 115%

Cc1cc2ncn(C3CC(=O)N(c4ccc(C(=O)O)cc4)C3=O)c2cc1C (stereo not shown) [CBK286586]
% viability [4]: 92.4% | viability at 28.5 h, 10 µM [5]: 89.4%

COc1ccc(CC(=O)N2CCN(Cc3ccco3)C[C@H]2C)cc1 [CBK285483]
% viability [4]: 104% | viability at 28.5 h, 10 µM [5]: 96%

CCN(Cc1ccccc1)C(=O)NCC1COc2ccccc2O1 (stereo not shown) [CBK155213]
% viability [4]: 89.3% | viability at 28.5 h, 10 µM [5]: 103%

Cc1oc(C2CC2)cc1C(=O)N[C@H](C)Cn1nnc2ccccc21 [CBK284258]
% viability [4]: 80.8% | viability at 28.5 h, 10 µM [5]: 78.1%

O=C(C1CC1)N1CCC[C@H](Cn2nc(-c3cccs3)ccc2=O)C1 [CBK284314]
% viability [4]: 91.8% | viability at 28.5 h, 10 µM [5]: 74.7%

COc1ccc2c(CN3CC4CCCN4C[C@H]3C)cn(C)c2c1 (stereo partly shown) [CBK285164]
% viability [4]: 84% | viability at 28.5 h, 10 µM [5]: 92.4%

O=C(O)c1cc(S(=O)(=O)NCc2ccco2)c(Cl)cc1N1CCCCC1 [CBK263409]
% viability [4]: 92.5% | viability at 28.5 h, 10 µM [5]: 108%

COc1ccc(/C=C/C(=O)O)cc1S(=O)(=O)N1CCOCC1 [CBK261247]
% viability [4]: 84.7% | viability at 28.5 h, 10 µM [5]: 101%

Cc1ccc(Cn2cc(Br)c(NC(=O)C(=O)O)n2)cc1 [CBK288529]
% viability [4]: 88.4% | viability at 28.5 h, 10 µM [5]: 96.9%

CCOC(=O)c1sc2nccc(Nc3ccccc3)c2c1N [CBK115365]
% viability [4]: 91.8% | viability at 28.5 h, 10 µM [5]: 90.8%

CCOC(=O)c1[nH]c(C)c(CN2CC3CCCN3C[C@@H]2C)c1C (stereo partly shown) [CBK285043]
% viability [4]: 105% | viability at 28.5 h, 10 µM [5]: 110%

CS(=O)(=O)N1C2CCC(C2)[C@H]1COc1cccc(C(F)(F)F)c1 (stereo partly shown) [CBK284596]
% viability [4]: 107% | viability at 28.5 h, 10 µM [5]: 98.7%

CC1CCCN(Cc2c([C@H]3CCCO3)[nH]c3ncccc23)C1 (stereo partly shown) [CBK282287]
% viability [4]: 106% | viability at 28.5 h, 10 µM [5]: 110%

O=C(CC1C(=O)NC(=O)N1Cc1ccccc1)NCc1ccccc1 (stereo not shown) [CBK288083]
% viability [4]: 94.6% | viability at 28.5 h, 10 µM [5]: 87.8%

CCCCOC(=O)c1ccc(NC(=O)Nc2ccc3ccc(Cl)nc3n2)cc1 [CBK115932]
% viability [4]: 97.1% | viability at 28.5 h, 10 µM [5]: 93.8%

O=C(O)/C(SC1=NC2=Nc3ccccc3C2N=N1)=C1/C(=O)Nc2ccccc21 (stereo not shown) [CBK021943]
% viability [4]: 96% | viability at 28.5 h, 10 µM [5]: 100%
